In patent publication EP0643693B1, “REVERSAL OF MULTI-DRUG RESISTANCE BY TRIPHENYL-PIPERIDINE DERIVATIVES” (MERRELL PHARMACEUTICALS INC., priority 1992, dated 1993):
Counter-ions that a name gives are not always drawn.

Key:
[1] = system: multidrug resistant human epidermoid carcinoma (KBV1) cells; assay: Growth inhibition of vinblastine-resistant KBV1 cells (reversal of multidrug resistance); assay type: cell-based
[2] = system: multidrug resistant human epidermoid carcinoma (KBV1) cells; assay: as above; assay type: cell-based; remark: listed apart in the source
Description: The ability of compounds of this invention to reverse multi drug resistance can be determined using standard test procedures. The ability of the test compounds to inhibit the growth of multidrug resistant human epidermoid carcinoma (KBV1) cells in the presence of both Vinblastine and the compound was determined. […]

With `CC[C@]1(O)C[C@@H]2CN(CCc3c([nH]c4ccccc34)[C@@](C(=O)OC)(c3cc4c(cc3OC)N(C)[C@H]3[C@@](O)(C(=O)OC)[C@H](OC(C)=O)[C@]5(CC)C=CCN6CC[C@]43[C@@H]65)C2)C1` [Vinblastine, reference compound] the inhibition at 0.25 µg/mL ([1]; Homo sapiens, KB-V1, VLB at 0.25 µg/ml alone, read-out: growthinhibition) was 0 to 10% and the growth inhibition ([1]; Vinblastine (0.25 µg/ml) alone) was 0 - 10%.
In the case of `COc1ccc(CCN2CCCCC2CC(c2ccccc2)c2ccccc2)cc1OC` (stereo not shown) [1-(3,4-Dimethoxyphenethyl)-2-(2,2-diphenylethyl)piperidine Maleate], the inhibition at 0.06 µM ([1]; Homo sapiens, KB-V1, compound alone, 0.06 µM) is reported as 1%, the inhibition at 0.12 µM ([1]; Homo sapiens, KB-V1, compound alone, 0.12 µM) is reported as 0% and the inhibition at 0.18 µM ([1]; Homo sapiens, KB-V1, compound alone, 0.18 µM) is reported as 8.1%. It also gave an inhibition at 0.23 µM ([1]; Homo sapiens, KB-V1, compound alone, 0.23 µM) of 12.2%, an inhibition at 0.06 µM ([2]; KB-V1, compound 0.06 µM + VLB at 0.25 µg/ml) of 30.4% and an inhibition at 0.12 µM ([2]; KB-V1, compound 0.12 µM + VLB at 0.25 µg/ml) of 60%. For the same molecule, the inhibition at 0.18 µM ([2]; KB-V1, compound 0.18 µM + VLB at 0.25 µg/ml) was 91.6% and the inhibition at 0.23 µM ([2]; KB-V1, compound 0.23 µM + VLB at 0.25 µg/ml) was 94.2%.
